According to ChEMBL document CHEMBL4190372, “Discovery of a Novel Oral Glucocorticoid Receptor Modulator (AZD9567) with Improved Side Effect Profile” (J Med Chem, 2018):
Converted amounts (≈) assume the structure as drawn.

Assays:
[1] = Drug metabolism in human hepatocytes treated with N-((1R,2S)-1-(3-chloro-4-cyanophenoxy)-1-(6-methoxypyridin-3-yl)propan-2-yl)-2,2-difluoropropanamide; assay type: ADME, cell-based, Hepatocyte
[2] = Drug metabolism in rat hepatocytes treated with N-((1R,2S)-1-(3-chloro-4-cyanophenoxy)-1-(6-methoxypyridin-3-yl)propan-2-yl)-2,2-difluoropropanamide; assay type: ADME, cell-based, Hepatocyte
Glucocorticoid receptor = target: T1, Glucocorticoid receptor (Homo sapiens, UniProt P04150); settings: hepatocytes, 18 h
T1 sequence (P04150 whole entry): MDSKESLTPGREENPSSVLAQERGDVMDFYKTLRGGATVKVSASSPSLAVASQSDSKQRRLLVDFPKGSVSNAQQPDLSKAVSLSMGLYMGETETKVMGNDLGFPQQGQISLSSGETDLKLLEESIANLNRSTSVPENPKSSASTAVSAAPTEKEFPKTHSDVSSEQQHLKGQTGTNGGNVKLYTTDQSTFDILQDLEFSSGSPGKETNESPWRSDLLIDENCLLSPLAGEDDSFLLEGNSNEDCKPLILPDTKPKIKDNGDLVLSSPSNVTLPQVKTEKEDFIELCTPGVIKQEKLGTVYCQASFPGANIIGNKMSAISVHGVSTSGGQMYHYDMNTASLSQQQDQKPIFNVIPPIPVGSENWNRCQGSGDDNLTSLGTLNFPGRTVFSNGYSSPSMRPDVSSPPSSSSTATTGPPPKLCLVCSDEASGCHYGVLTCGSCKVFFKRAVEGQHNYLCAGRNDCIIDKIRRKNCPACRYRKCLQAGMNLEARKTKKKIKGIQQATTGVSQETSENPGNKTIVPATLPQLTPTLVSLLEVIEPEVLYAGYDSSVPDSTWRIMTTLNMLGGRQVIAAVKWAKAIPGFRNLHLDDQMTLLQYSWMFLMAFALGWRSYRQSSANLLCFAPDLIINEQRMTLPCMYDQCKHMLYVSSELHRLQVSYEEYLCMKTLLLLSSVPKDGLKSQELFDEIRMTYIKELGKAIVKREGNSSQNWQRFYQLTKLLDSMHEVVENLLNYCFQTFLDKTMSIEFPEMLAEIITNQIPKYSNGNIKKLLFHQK
Description: Transactivation of GR in cryopreserved human primary hepatocytes assessed as upregulation of TAT mRNA expression level after 18 hrs by RT-qPCR analysis

[3] = target: T2, Mineralocorticoid receptor (Homo sapiens, UniProt P08235); assay: Displacement of [3H]-aldosterone from human mineralocorticoid receptor LBD (729 to 984 residues) after 1 hr by scintillation proximity assay
T2 sequence (P08235 whole entry): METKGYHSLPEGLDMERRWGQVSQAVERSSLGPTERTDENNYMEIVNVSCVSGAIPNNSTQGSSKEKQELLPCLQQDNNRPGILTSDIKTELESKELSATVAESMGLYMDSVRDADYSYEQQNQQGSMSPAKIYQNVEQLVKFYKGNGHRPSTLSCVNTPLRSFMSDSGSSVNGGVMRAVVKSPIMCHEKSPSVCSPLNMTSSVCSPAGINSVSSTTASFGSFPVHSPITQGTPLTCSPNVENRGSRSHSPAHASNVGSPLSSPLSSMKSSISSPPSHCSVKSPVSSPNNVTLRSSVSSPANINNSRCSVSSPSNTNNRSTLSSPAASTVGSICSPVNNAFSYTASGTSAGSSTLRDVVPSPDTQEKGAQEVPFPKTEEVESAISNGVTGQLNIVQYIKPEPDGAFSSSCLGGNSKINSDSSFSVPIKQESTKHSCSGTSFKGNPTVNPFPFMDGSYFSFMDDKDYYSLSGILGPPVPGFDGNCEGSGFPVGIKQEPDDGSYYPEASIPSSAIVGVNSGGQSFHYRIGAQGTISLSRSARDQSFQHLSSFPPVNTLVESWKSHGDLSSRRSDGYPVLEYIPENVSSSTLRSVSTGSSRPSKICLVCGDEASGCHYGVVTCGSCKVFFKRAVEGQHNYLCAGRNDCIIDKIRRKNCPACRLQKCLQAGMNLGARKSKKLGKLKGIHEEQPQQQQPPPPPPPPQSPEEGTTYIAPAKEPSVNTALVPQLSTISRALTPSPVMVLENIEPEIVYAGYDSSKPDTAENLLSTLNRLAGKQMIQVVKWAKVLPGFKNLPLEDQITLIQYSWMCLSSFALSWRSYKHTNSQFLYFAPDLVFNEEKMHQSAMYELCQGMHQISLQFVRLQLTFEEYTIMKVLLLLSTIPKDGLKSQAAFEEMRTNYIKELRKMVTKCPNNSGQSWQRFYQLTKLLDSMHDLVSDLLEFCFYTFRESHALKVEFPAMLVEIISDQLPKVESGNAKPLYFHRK

[4] = target: T3, Glucocorticoid receptor (Homo sapiens) (UniProt P04150)
T3 sequence (whole entry): T1 sequence (P04150 whole entry)
Description: Transrepression of GR in cryopreserved human fetal osteoblasts assessed as inhibition of OPG mRNA expression after 4 hrs by RT-qPCR analysis

Rattus norvegicus [5] = assay: Dose normalized AUC (0 to infinity) in Han-Wistar rat at 3.5 mg/kg, po; assay type: ADME, organism-based; settings: in vivo
[6] = Terminal half life in Han-Wistar rat at 3.5 mg/kg, po; assay type: ADME, organism-based; settings: in vivo, read-out: beta t1/2 (converted)
Rattus norvegicus [7] = assay: Dose normalized Cmax in Han-Wistar rat at 3.5 mg/kg, po; assay type: ADME, organism-based; settings: in vivo
[8] = Terminal half life in Han-Wistar rat at 0.9 mg/kg, iv; assay type: ADME, organism-based; settings: in vivo, read-out: beta t1/2 (converted)
[9] = Clearance in Han-Wistar rat at 0.9 mg/kg, iv; assay type: ADME, organism-based; settings: in vivo
Rattus norvegicus [10] = assay: Antiinflammatory activity in streptococcal cell wall reactivation Lewis rat model assessed as reduction of joint swelling at 5 mg/kg administered once daily for 8 days by oral gavage starting 1 day prior to streptococcal cell wall challenge measured during 6 days post challenge relative to control; assay type: functional; parameters: scale not given: the % may be the effect or the level left
[11] = Volume of distribution at steady state in Han-Wistar rat at 0.9 mg/kg, iv; assay type: ADME, organism-based; settings: in vivo, read-out: Vdss
[12] = Aqueous solubility of the compound; assay type: physicochemical; settings: aqueous; read-out: solubility
Estrogen receptor beta = Estrogen receptor beta (Homo sapiens, UniProt Q92731); assay: Binding affinity to human ERbeta expressed in Sf9 cells by fluoligand binding-based fluorescence polarization method
Rattus norvegicus [13] = assay: Antiinflammatory activity in streptococcal cell wall reactivation Lewis rat model assessed as reduction of joint swelling at 20 mg/kg administered once daily for 8 days by oral gavage starting 1 day prior to streptococcal cell wall challenge measured during 6 days post challenge relative to control; assay type: functional; parameters: scale not given: the % may be the effect or the level left
Estrogen receptor = target: T4, Estrogen receptor (Homo sapiens, UniProt P03372); assay: Binding affinity to human ERalpha expressed in Sf9 cells by fluoligand binding-based fluorescence polarization method
T4 sequence (P03372 whole entry): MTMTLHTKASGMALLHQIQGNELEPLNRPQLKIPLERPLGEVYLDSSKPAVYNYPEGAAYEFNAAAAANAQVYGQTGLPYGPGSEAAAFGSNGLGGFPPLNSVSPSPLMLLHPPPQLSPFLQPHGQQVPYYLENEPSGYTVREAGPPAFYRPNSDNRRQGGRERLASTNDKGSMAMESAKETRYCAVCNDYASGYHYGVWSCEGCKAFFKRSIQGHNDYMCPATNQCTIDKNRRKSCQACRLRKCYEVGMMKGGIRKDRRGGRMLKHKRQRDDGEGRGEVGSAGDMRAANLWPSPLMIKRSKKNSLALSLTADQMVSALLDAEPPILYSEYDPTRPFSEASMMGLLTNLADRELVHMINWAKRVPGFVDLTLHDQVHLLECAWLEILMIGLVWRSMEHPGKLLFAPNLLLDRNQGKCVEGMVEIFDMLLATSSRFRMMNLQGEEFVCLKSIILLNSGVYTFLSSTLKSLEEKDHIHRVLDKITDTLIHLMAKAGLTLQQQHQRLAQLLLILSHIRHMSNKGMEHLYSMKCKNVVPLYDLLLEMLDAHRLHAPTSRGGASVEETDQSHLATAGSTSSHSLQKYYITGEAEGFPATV

[14] = Tmax in Han-Wistar rat at 3.5 mg/kg, po; assay type: ADME, organism-based; settings: in vivo

Sequence of Estrogen receptor beta (Q92731 whole entry): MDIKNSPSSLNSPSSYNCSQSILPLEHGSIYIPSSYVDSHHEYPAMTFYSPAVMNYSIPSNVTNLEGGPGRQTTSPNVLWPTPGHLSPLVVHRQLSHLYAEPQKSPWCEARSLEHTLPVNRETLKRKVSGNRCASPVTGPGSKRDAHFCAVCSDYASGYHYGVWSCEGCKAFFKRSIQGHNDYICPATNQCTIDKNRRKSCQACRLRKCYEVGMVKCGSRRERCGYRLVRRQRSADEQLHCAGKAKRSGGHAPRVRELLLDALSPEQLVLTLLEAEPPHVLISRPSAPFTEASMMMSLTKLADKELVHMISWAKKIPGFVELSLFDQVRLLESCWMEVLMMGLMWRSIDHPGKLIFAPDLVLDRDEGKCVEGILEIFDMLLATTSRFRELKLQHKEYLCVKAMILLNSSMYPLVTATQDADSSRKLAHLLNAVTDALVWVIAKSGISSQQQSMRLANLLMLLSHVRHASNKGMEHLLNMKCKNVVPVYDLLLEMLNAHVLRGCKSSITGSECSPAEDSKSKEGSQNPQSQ

Drug metabolism [1] | Drug metabolism [2] | fEC50 (Glucocorticoid receptor) | IC50 [3] | fIC20 [4] | AUC/dose (Rattus norvegicus [5]) | half-life [6] | Cmax/dose (Rattus norvegicus [7]) | half-life [8] | clearance [9] | Vd [11] | solubility [12] | IC50 (Estrogen receptor beta) | IC50 (Estrogen receptor) | Tmax [14] | Structure (SMILES) | Activity (Rattus norvegicus [10]) | Activity (Rattus norvegicus [13])
Metabolite_Detected | Metabolite_Detected |  |  |  |  |  |  |  |  |  |  |  |  |  | C[C@H](NC(=O)C(C)(F)F)[C@H](Oc1ccc(C#N)c(Cl)c1)c1ccc(O)nc1 |  | 
 |  | 24 nM | 0.011 µM | 0.88 nM | 0.094 µM·h | 150 min | 100 nM | 24 min | 90 mL/min/kg | 1.2 L/kg | 310 µM (≈ 112 µg/mL) | > 100 µM | > 100 µM | 16.8 min | C[C@]12C=CC(=O)C=C1CC[C@@H]1[C@@H]2[C@@H](O)C[C@@]2(C)[C@H]1CC[C@]2(O)C(=O)CO [PREDNISOLONE] | 59% | 73%
